Reference: PubChem BioAssay (NCI)
Several values for one entry are separate records, joined by “and”; a condition that tells them apart may be missing. Equal entries are not always repeated.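 The compound was tested at five concentrations on cells cultured in 96-well plates, with a 48-hour exposure period. GI50 = concentration required for 50% inhibition of growth. TGI denotes the concentration required for complete inhibition of growth.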

What was measured:
Assay in all cases: NCI anticancer screen, dose series, 48 h
[1] = tested on: UACC-257 melanoma
[2] = tested on: OVCAR-4 ovarian
[3] = tested on: MALME-3M melanoma
[4] = tested on: NCI-H226 lung
[5] = tested on: UO-31 renal
[6] = tested on: SK-OV-3 ovarian
[7] = tested on: COLO 205 colon
[8] = tested on: SK-MEL-5 melanoma
[9] = tested on: U251 CNS
[10] = tested on: KM12 colon

| SMILES | TGI [1] [µM] | TGI [2] [µM] | TGI [3] [µM] | TGI [4] [µM] | TGI [5] [µM] | TGI [6] [µM] | TGI [7] [µM] | TGI [8] [µM] | TGI [9] [µM] | TGI [10] [µM] | GI50 [1] [µM] | GI50 [2] [µM] | GI50 [3] [µM] | GI50 [4] [µM] | GI50 [5] [µM] | GI50 [6] [µM] | GI50 [7] [µM] | GI50 [8] [µM] | GI50 [9] [µM] | GI50 [10] |
| --- | --- | --- | --- | --- | --- | --- | --- | --- | --- | --- | --- | --- | --- | --- | --- | --- | --- | --- | --- | --- |
| COc1ccc(S(=O)(=O)Nc2ccc(-c3csc(N4C(=O)/C(=C/c5cccs5)N=C4c4ccccc4)n3)cc2)cc1Cl | > 100 | > 100 | 90.5 | > 100 | 86.3 | > 100 | > 100 | > 100 | > 100 | > 100 | – | – | – | – | – | – | – | – | – | – |
| CCCCCCCCCC[N+](C)(C)C | 7.07 | 14.5 | 8.96 | 8.97 | 20 | 13 | 2.59 | 3.26 | 2.29 | – | 2.3 | 2.2 | 2.25 | 2.37 | 4.91 | 2.57 | 1.28 | 1.73 | 1.04 | – |
| COc1ccc(OCC(C)(C)O)cc1 | > 100 | > 100 | > 100 | > 100 | > 100 | > 100 | > 100 | > 100 | > 100 | > 100 | – | – | – | – | – | – | – | – | – | – |
| COc1ccc2c(c1)c(=O)c1c(NCCCN(C)C)ccc3ncn2c31 | 27 | 13 | 26 | 22.2 | 16.1 | 22.1 | 18.6 | 24.3 | 5.93 | 15.5 | – | – | – | – | – | – | – | – | – | – |
| CCOC(=O)/C=C/c1c[nH]c(=O)[nH]c1=O | > 75 | > 75 | > 75 | > 75 | > 75 | > 61.2 | > 75 | > 75 | > 75 | > 75 | – | – | – | – | – | – | – | – | – | – |
| COC1C(OC(C)=O)CC(=O)OC(C)C/C=C/C=C\C(O)C(C)CC(CC=O)C1OC1OC(C)C(OC2CC(C)(O)C(OC(=O)CC(C)C)C(C)O2)C(N(C)C)C1O (stereo not drawn) | > 100 | > 100 | > 100 | > 100 | > 100 | > 100 | > 100 | > 100 | > 100 | > 100 | – | – | – | – | – | – | – | – | – | 37.9 µM and 85.3 µM |
| c1ccc(N2N=C3N(c4ccccc4)C2N3c2ccccc2)cc1 | 55 | > 100 | 38.2 | – | > 100 | > 100 | 49.1 | 63.4 | > 100 | > 100 | – | – | – | – | – | – | – | – | – | – |
| CCOC(=O)C1=C(C)N(C2OC(COC(C)=O)C(OC(C)=O)C(OC(C)=O)C2OC(C)=O)C(=O)NC1c1ccccc1 (stereo not drawn) | > 100 | > 100 | > 100 | > 100 | > 100 | > 100 | > 100 | > 100 | > 100 | > 100 | – | – | – | – | – | – | – | – | – | – |
| COc1c2occc2cc2ccc(=O)oc12 | > 100 | > 100 | > 100 | > 100 | > 100 | > 100 | > 100 | > 100 | > 100 | > 100 | – | – | > 100 | > 100 | – | – | – | – | – | > 100 µM |
| COc1ccc2c(c1)C=C(C(C)(C)C)NS2(=O)=O | > 100 | > 100 | > 100 | > 100 | > 100 | > 100 | > 100 | > 100 | > 100 | > 100 | – | – | – | – | – | – | – | – | – | – |
| C[C@]12CC/C(=N\O)C=C1CC[C@@H]1[C@@H]2CC[C@]2(C)C(=N/O)/C(=C/c3ccncc3)C[C@@H]12 | 80.2 | > 100 | > 100 | 87.3 | 24.3 | > 100 | > 100 | 23 | > 100 | > 100 | – | – | – | – | – | – | – | – | – | – |
| CC1OC(OC2C[C@](O)(C(=O)CBr)Cc3c(O)c4c(c(O)c32)C(=O)c2ccccc2C4=O)C(F)C(O)C1O (stereo partly drawn) | 39.6 | 97.9 | 16.5 | 36.4 | 8.9 | > 100 | 28.8 | 24.4 | > 74.7 | > 84.1 | – | – | – | – | – | – | – | – | – | – |
| CC(=O)OCc1nnn2c1CCC2 | > 100 | > 100 | > 100 | – | > 100 | > 100 | – | > 100 | > 100 | > 100 | – | – | – | – | – | – | – | – | – | – |
| CC(c1ccccc1)C(O)S(=O)(=O)O (stereo not drawn) | > 100 | > 100 | > 100 | > 100 | > 100 | > 100 | > 100 | – | > 100 | > 100 | – | – | – | – | – | – | – | – | – | – |
| CCCCn1c(C)c2c(c1C)C(=O)N(CCN1CCN(c3ccccc3Cl)CC1)C2=O | 74.3 | > 100 | 50.2 | > 100 | 43.3 | > 100 | > 100 | 34.9 | > 100 | > 100 | – | – | – | – | – | – | – | – | – | – |
